{
  "source": "patent EP0169785A1",
  "about": "“Use of 1,8,9-triacetoxy-anthracene as the active ingredient in the preparation of an antitumoral pharmaceutical compound” (CENTRE INTERNATIONAL DE RECHERCHES DERMATOLOGIQUES C.I.R.D. …, priority 1984, dated 1986)",
  "key": {"[1]": {"test": "Solubility (qualitative description)", "format": "physicochemical", "details": "solvents named"}, "[2]": {"tested_on": "cellules leucémiques lymphocytiques P 388", "test": "Anti-tumour activity against intraperitoneally implanted P 388 lymphocytic leukaemia in mice (median survival time)", "format": "in vivo, souris", "details": "for Temps médian de survie (en jours) Animaux testés T / T/C x 100: intraperitoneal; for Temps médian de survie (en jours) Animaux testés T: daily for 5 days after tumour implantation, controls C 9,9 days; for T/C x 100: active when ratio above 120", "description": "EXEMPLE 4 - Etude de l'activité anti-tumorale vis-à-vis des cellules leucémiques lymphocytiques P 388.\nLe principe du test est le suivant : On implante chez la souris, au jour zéro, une tumeur, par injection intrapéritonéale de 10^6 cellules tumorales dans 0,1 ml de fluide ascitique dilué. Le traitement consiste à administrer quotidiennement le produit étudié, par voie intrapéritonéale pendant les 5 jours suivant l'implantation de la tumeur.\nOn considère que le produit est actif selon ce test, lorsque le rapport [formula] est supérieur à 120."}, "[3]": {"tested_on": "cellules de mélanocarcinome B 16", "test": "Anti-tumour activity against intraperitoneally implanted B 16 melanocarcinoma in mice (median survival time)", "format": "in vivo, souris", "details": "for Temps médian de survie (en jours) Animaux testés T / T/C X 100: intraperitoneal; for Temps médian de survie (en jours) Animaux testés T: daily for 9 days after tumour implantation, controls C 15,4 days; for T/C X 100: active when ratio above 125", "description": "EXEMPLE 5 - Etude de l'activité anti-tumorale vis-à-vis des cellules de mélanocarcinome B 16.\nLe principe du test est le suivant : On a implanté, chez la souris, par injection intrapériotonéale au jour 0, 0,5 ml d'un homogénéisat dilué (1/10) des cellules tumorales.\nLe traitement consiste à administrer le produit étudié, quotidiennement, par voie intrapéritonéale, pendant les 9 jours suivant l'implantation de la tumeur.\nOu considère qu'un produit est actif, selon ce test, lorsque le rapport [formula] est supérieur à 125."}},
  "data": [
    {"smiles": "CC(=O)Oc1cccc2cc3cccc(OC(C)=O)c3c(OC(C)=O)c12", "note": "[composé de formule I, triacétoxy-1,8,9 anthracène]", "values": [
      {"measurement": "solubilité", "setting": "[1]", "value": "soluble notamment dans les alcools et l'acétone"},
      {"measurement": "Temps médian de survie (en jours) Animaux testés T", "setting": "[2]; 0,79 mg/kg", "value": "12,3 jours"},
      {"measurement": "T/C x 100", "setting": "[2]; 0,79 mg/kg, daily for 5 days", "value": 124},
      {"measurement": "Temps médian de survie (en jours) Animaux testés T", "setting": "[2]; 1,56 mg/kg", "value": "13,3 jours"},
      {"measurement": "T/C x 100", "setting": "[2]; 1,56 mg/kg, daily for 5 days", "value": 134},
      {"measurement": "Temps médian de survie (en jours) Animaux testés T", "setting": "[2]; 3,12 mg/kg", "value": 13, "unit": "jours"},
      {"measurement": "T/C x 100", "setting": "[2]; 3,12 mg/kg, daily for 5 days", "value": 131},
      {"measurement": "minimal effective dose", "setting": "[2]; Mus musculus, P388, ip, 120 h, P 388, intraperitoneal, daily for 5 days, dose at which the compound is active (T/C x 100 above 120), read-out: actif à la dose de", "value": "~0.8", "unit": "mg/kg"},
      {"measurement": "dose optimale", "setting": "[2]; P 388, intraperitoneal, daily for 5 days", "value": "~1,56 mg/kg"},
      {"measurement": "Temps médian de survie (en jours) Animaux testés T", "setting": "[3]; 0,75 mg/kg", "value": "19,7 jours"},
      {"measurement": "T/C X 100", "setting": "[3]; 0,75 mg/kg, daily for 9 days", "value": 127},
      {"measurement": "Temps médian de survie (en jours) Animaux testés T", "setting": "[3]; 3 mg/kg", "value": 20, "unit": "jours"},
      {"measurement": "T/C X 100", "setting": "[3]; 3 mg/kg, daily for 9 days", "value": 129},
      {"measurement": "Temps médian de survie (en jours) Animaux testés T", "setting": "[3]; 1,5 mg/kg", "value": 23, "unit": "jours"},
      {"measurement": "T/C X 100", "setting": "[3]; 1,5 mg/kg, daily for 9 days", "value": 149},
      {"measurement": "dose optimale", "setting": "[3]; B 16, intraperitoneal, daily for 9 days", "value": "~1,50 mg/kg"}
    ]}
  ]
}
